In general, Kd refers to a measure of binding affinity in units of concentration. Read a low Kd as tighter binding.

Assay [1] has as its target T1, Nucleolin (Homo sapiens, UniProt P19338).
T1 construct: gene NCL; Recombinant human Nucleolin
Briefly: SPR (Biacore […], immobilized Nucleolin on CM5 chip); supported by CETSA, DARTS and affinity pull-down. The format is binding.

For assay [2], the target named is T2, HSP70 (Homo sapiens, UniProt P0DMV8).
T2 construct: gene HSPA1A
Briefly: DARTS in Jurkat lysate and living cells at […] (MS and western blot); pull-down with immobilized oridonin. Type of assay: cell-based. For orientation: In western blotting, separated proteins are transferred to a membrane and probed.

SMILES strings stand for the structures.

T1 sequence (P19338 2-710): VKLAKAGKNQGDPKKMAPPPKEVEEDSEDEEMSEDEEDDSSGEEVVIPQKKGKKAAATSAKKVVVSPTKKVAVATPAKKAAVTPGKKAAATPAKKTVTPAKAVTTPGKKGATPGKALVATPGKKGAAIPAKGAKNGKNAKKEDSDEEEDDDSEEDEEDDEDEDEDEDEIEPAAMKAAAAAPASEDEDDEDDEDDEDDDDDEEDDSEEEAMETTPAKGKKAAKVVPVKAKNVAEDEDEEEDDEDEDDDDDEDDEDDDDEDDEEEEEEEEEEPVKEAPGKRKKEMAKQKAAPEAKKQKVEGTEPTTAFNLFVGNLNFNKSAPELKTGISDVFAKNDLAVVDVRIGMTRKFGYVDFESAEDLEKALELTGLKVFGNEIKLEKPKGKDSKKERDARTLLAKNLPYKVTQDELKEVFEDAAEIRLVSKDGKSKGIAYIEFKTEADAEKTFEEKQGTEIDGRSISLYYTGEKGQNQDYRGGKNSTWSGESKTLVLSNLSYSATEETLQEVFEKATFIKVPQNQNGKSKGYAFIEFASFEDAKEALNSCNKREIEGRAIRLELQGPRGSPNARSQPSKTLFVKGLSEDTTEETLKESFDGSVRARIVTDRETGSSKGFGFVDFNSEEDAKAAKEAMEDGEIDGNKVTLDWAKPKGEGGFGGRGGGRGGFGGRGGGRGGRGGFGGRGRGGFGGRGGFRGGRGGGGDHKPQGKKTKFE
T2 sequence (P0DMV8 2-641): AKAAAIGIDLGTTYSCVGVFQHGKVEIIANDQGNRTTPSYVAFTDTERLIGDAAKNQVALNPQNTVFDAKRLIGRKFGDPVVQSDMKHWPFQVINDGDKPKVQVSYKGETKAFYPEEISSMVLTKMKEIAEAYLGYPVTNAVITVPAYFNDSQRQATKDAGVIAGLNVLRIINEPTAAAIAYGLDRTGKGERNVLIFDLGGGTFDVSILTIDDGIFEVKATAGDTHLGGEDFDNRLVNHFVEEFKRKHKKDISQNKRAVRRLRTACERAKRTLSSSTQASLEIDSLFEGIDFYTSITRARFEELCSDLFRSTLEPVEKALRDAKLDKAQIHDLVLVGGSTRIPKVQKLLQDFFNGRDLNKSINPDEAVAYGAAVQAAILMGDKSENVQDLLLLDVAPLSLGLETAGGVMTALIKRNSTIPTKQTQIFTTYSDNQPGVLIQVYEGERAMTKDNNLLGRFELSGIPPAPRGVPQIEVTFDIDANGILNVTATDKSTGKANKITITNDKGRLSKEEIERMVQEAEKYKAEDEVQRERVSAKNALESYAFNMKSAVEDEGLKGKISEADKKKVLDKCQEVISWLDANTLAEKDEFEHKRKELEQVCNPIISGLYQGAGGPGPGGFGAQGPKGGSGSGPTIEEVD

`C=C1C(=O)[C@]23[C@H](O)[C@H]1CC[C@H]2[C@@]12CO[C@]3(O)[C@@H](O)[C@@H]1C(C)(C)CC[C@@H]2O` [oridonin] displayed a Kd in assay [1] of 3.8 ± 1.2 nM. Moreover, in assay [2], the “DARTS in Jurkat lysate and living cells at 5 μM (MS and western blot); pull-down” value was “only three proteins emerged as putative oridonin targets: HSP70, HSP90, and Nucleolin”.

Values taken from publication PMC6233161, “The anti-tumor diterpene oridonin is a direct inhibitor of Nucleolin in cancer cells” (Scientific Reports, 2018).
